In patent US12600740B2, “Fluorinated N-acetyl glucosamine analogs and xylose derivatives” (UTI Limited Partnership, priority 2018, dated 2026):

Assays:
[1] = tested on: heparan sulfate proteoglycans (HSPGs) side chains; assay: Western blot of heparan sulfate GAGs (10E4) produced by astrocytes; format: cell-based, mouse
From the text: Compounds that were able to reduce chondroitin GAGs were also investigated for their ability to reduce heparan sulfate GAGs. […] D. & de Vries, H. E. Extensive extracellular matrix depositions in active multiple sclerosis lesions. Neurobiology of disease 24, 484-491 (2006); van Horssen, J., Bö, L., Vos, C. M., Virtanen, I. & de Vries, H. E. Basement membrane proteins in multiple sclerosis-associated inflammatory cuffs: potential role in influx and transport of leukocytes. Journal of neuropathology and experimental neurology 64, 722-729 (2005)] and have detrimental pro-inflammatory capabilities [Parish, C. R. The role of heparan sulphate in inflammation. Nature reviews. Immunology 6, 633-643 (2006)].
Astrocytes were plated in uncoated 6-well plates (3 replicate wells per treatment) at 1×10^6 cells/well in mixed glial media, and incubated at 5% CO2 and 37° C. Astrocytes were treated with compounds at 50 μM in AIM-V media for 48 hours. Media was pooled from 3 replicate wells in 15 ml 100K cutoff centricon tubes (EMD Millipore, #UFC905008), which were spun on an ultracentrifuge at 5000× g for 2 cycles of 10 minutes each. When harvested, the cell lysate was kept on ice for 5 minutes with 250 μL of RIPA buffer (ThermoFisher Scientific #89900) containing proteinase inhibitor, and then collected and centrifuged at 14000 g for 5 minutes. Total protein was quantified using a Bradford assay. Conditioned media that were to be probed for chondroitin 4-sulfate GAGs (Millipore, #MAB2030) were first digested with 0.2 U/ml chondroitinase ABC for overnight at 37° C. to remove chondroitin sulfate sidechains. Blots that were to be probed with CSA (2H6, Cosmo) or CS56 (Abcam #ab11570) were not exposed to chondroitinase ABC. Samples were heat denatured with NuPAGE® LDS Sample buffer at 70° C. for 10 minutes and then loaded into 3-8% tris-acetate pre-cast gels (ThermoFisher, #EA0478BOX). The gels were electrophoresed at a constant 150 V for 90 minutes and transferred to a […] polyvinylidene fluoride membrane at a constant 250 mA for 60 minutes. The membranes were blocked for one hour with 10% skim milk in Tris-buffered saline (TBS; 0.9% NaCl, 10 mM Tris-HCl, pH 7.5) containing 0.5% Tween 20 (TBS-T). Primary antibodies were added in 3% skim milk and incubated overnight at 4° C. The membranes were washed 5×5 minutes with TBS-T. HRP-conjugated secondary antibodies were incubated for 120 minutes. The membranes were washed again for 5×5 minutes with TBS-T. Membranes were developed using an ECL chemiluminescence kit (GE Lifesciences) and manually exposed to developing and fixative solutions. Band density was quantified using Gel Analysis on ImageJ. A rectangular shape measured the density of bands for each lane. […]

[2] = tested on: intact 4-sulfated chondroitin sulfate sidechains (2H6); assay: Western blot of astrocyte conditioned medium, 2H6 (intact chondroitin-4-sulfate); format: cell-based, mouse; details: astrocyte conditioned media
From the text: Astrocytes are major producers of CSPGs following injury in the CNS [Jones, L. L., Margolis, R. U. & Tuszynski, M. H. The chondroitin sulfate proteoglycans neurocan, brevican, phosphacan, and versican are differentially regulated following spinal cord injury. Experimental Neurology 182, 399-411 (2003); Tang, X., Davies, J. E. & Davies, S. J. Changes in distribution, cell associations, and protein expression levels of NG2, neurocan, phosphacan, brevican, versican V2, and tenascin-C during acute to chronic maturation of spinal cord scar tissue. […] The Journal of neuroscience: the official journal of the Society for Neuroscience 20, 2427-2438 (2000); McKeon, R. J., Jurynec, M. J. & Buck, C. R. The chondroitin sulfate proteoglycans neurocan and phosphacan are expressed by reactive astrocytes in the chronic CNS glial scar. The Journal of neuroscience: the official journal of the Society for Neuroscience 19, 10778-10788 (1999); Haas, C. A., Rauch, U., Thon, N., Merten, T. & Deller, T. Entorhinal cortex lesion in adult rats induces the expression of the neuronal chondroitin sulfate proteoglycan neurocan in reactive astrocytes. The Journal of neuroscience: the official journal of the Society for Neuroscience 19, 9953-9963 (1999)] and they may help drive progression of disability in a model of progressive MS [Mayo, L. et al. Regulation of astrocyte activation by glycolipids drives chronic CNS inflammation. Nature medicine 20, 1147-1156 (2014)]. Therefore astrocytes were used as model cells to determine the ability of the sugar analogs to reduce synthesis of CSPGs. Since CSPGs are exported out of cells, the conditioned media from analog-treated astrocytes were probed by Western blots (FIG. 4). We used antibodies to both the stubs of chondroitin sulfate GAGs attached to the core protein (MAB2030) and to intact 4-sulfated chondroitin sulfate sidechains (2H6) (FIG. 4a). Particularly, we used the 2H6 antibody to label intact 4-sulfated chondroitin sulfate sidechains, and the MAB2030 antibody to detect the stubs of chondroitin sulfate GAGs attached to the core protein. […] 1998, 160 (8), 3812-3819. Poole Poole C. A.; Glant T. T.; Schofield J. R.; Chondrons from articular cartilage. (IV). Immunolocalization of proteoglycan epitopes in isolated canine tibial chondrons. J. Histochem. Cytochem. 1991, 39 (9), 1175-1187].
Astrocytes were plated in uncoated 6-well plates (3 replicate wells per treatment) at 1×10^6 cells/well in mixed glial media, and incubated at 5% CO2 and 37° C. Astrocytes were treated with compounds at 50 μM in AIM-V media for 48 hours. Media was pooled from 3 replicate wells in 15 ml 100K cutoff centricon tubes (EMD Millipore, #UFC905008), which were spun on an ultracentrifuge at 5000× g for 2 cycles of 10 minutes each. […] Total protein was quantified using a Bradford assay. […]

Compound | HSPG side chains (intact heparan sulfate GAGs, 10E4) [1] | total chondroitin sulfate side chains (2H6) [2]
CCCC(=O)OC1OC(COC(C)=O)[C@@H](F)[C@H](OC(C)=O)C1NC(C)=O (mixture of isomers) [Compound 8, 2-Acetamido-3,6-di-O-acetyl-1-O-butanoyl-2,4-dideoxy-4-fluoro-α/β-D-glucopyranose] | slight reduction in HSPG side chains | –
CC(=O)NC1C(O)OC(COC(C)=O)[C@@H](F)[C@@H]1OC(C)=O (mixture of isomers) [Compound 10] | – | showed evidence of reducing total chondroitin sulfate side chains
CC(=O)NC1C(OC(C)=O)OC(COC(C)=O)C(F)(F)[C@@H]1OC(C)=O (mixture of isomers) [Compound 16, 2-Acetamido-1,3,6-tri-O-acetyl-2,4-dideoxy-4,4-difluoro-α/β-D-xylo-hexopyranose] | slight reduction in HSPG side chains | showed evidence of reducing total chondroitin sulfate side chains
CC(=O)NC1C(OC(C)=O)OC(COC(C)=O)[C@@H](F)C1OC(C)=O (some centres unmarked) [Compound 3, reference compound] | slight reduction in HSPG side chains | showed evidence of reducing total chondroitin sulfate side chains
CCC(=O)OC1OC(COC(C)=O)[C@@H](F)[C@H](OC(C)=O)C1NC(C)=O (stereo partly drawn) [Compound 7, 2-Acetamido-3,6-di-O-acetyl-2,4-dideoxy-4-fluoro-1-O-propanoyl-α/β-D-glucopyranose] | – | showed evidence of reducing total chondroitin sulfate side chains
CCCC(=O)OC[C@H]1OC(O)[C@H](NC(C)=O)[C@@H](OC(=O)CCC)[C@@H]1F (stereo partly drawn) [Compound 12, 2-Acetamido-3,6-di-O-butanoyl-2,4-dideoxy-4-fluoro-α/β-3-D-glucopyranose] | slight reduction in HSPG side chains | –
